Common to all, as to test: growth of human tumour cells (NCI), 48 h
Test [1] relates to A549 NSCLC.
In test [2] the test system is HOP-62 NSCLC.
The test system of test [3] is NCI-H460 lung.
Test [4] has as its system OVCAR-3 ovarian.
For test [5], the system named is SF-268 CNS.
For test [6], the system named is SK-MEL-2 melanoma.
Test [7] deals with SN12C renal.
The subject of test [8] is SNB-75 CNS.
Test [9] relates to U251 CNS.
For test [10], the system named is UACC-62 melanoma.

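Growth conditions: 96-well plates. Treatment: test compound, 48 hours, 5 concentrations. Analysis: linear interpolation between bracketing concentrations; unreached endpoints set to highest concentration. TGI denotes the concentration required for complete inhibition of growth.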 A value given as a limit tells only on which side of the number the result lay.

Turning to `Cc1[nH]c(=O)[nH]c(=O)c1/C=C/C(=O)NC(CO)CS(=O)CS(C)=O` (stereo not given), the TGI was 332 µM in [1]; 94.5 µM in [2]; 68.1 µM in [3]; 31.1 µM in [4]; 35.2 µM in test [5]; 59.2 µM in test [6]. Also, the TGI in test [7] was determined as 91.5 µM; in [8], 38.8 µM; in test [9], 39.6 µM; in [10], 56.3 µM.

Consider `CCOC(=O)CCC(C(=O)OCC)n1nc2ccc(Nc3c(C)[n+]([O-])c4cc(F)c(OCC)cc4[n+]3[O-])cc2n1` (stereo not given), for which the TGI in test [1] was greater than 100 µM; in test [2] it was 40.8 µM; in test [3] it was greater than 100 µM; in [4], greater than 100 µM; in [5], 37.6 µM; in test [6], greater than 100 µM. For the same compound, the TGI in test [7] was greater than 100 µM; in test [8], 32.9 µM; in test [9], 62.7 µM; in test [10], greater than 100 µM.

On to `Clc1cc(Cl)c2cc3cccc[n+]3cc2c1Cl`, for which the TGI in test [1] was determined as 34.1 µM; in test [2] it was 31.6 µM; in test [3] it was 32.2 µM; in [4] it was 26.8 µM; in test [5] it was 26.5 µM; in [6], 30.1 µM. Moreover, the TGI in test [7] turned out to be 39.5 µM; in [8], 24.7 µM; in [9] it was 34.7 µM; in [10], 32.7 µM.

`CC(C)(C)OC(=O)N1C(OP(=O)(Oc2ccccc2)Oc2ccccc2)=CSc2ccccc21`: the TGI in [1] was greater than 100 µM; in [2] it was greater than 100 µM; in test [3], greater than 100 µM; in test [4], greater than 100 µM; in test [5], greater than 100 µM; in [6] it was 43.7 µM. Further, the TGI in test [7], in test [8], in [9] and in [10] was greater than 100 µM each time.

The values above are taken from PubChem BioAssay (NCI).
